# Measured values: BindingDB's records for doi:10.1021/acschembio.6b00827 (Universitätsklinikum Frankfurt, 2017)
# Tests used:
# [1] = molecular target: T1, Protein kinase C iota type (Homo sapiens, UniProt P41743); test: PKC AlphaScreen Assay; details: pH 7.4
# T1 sequence (P41743 whole entry): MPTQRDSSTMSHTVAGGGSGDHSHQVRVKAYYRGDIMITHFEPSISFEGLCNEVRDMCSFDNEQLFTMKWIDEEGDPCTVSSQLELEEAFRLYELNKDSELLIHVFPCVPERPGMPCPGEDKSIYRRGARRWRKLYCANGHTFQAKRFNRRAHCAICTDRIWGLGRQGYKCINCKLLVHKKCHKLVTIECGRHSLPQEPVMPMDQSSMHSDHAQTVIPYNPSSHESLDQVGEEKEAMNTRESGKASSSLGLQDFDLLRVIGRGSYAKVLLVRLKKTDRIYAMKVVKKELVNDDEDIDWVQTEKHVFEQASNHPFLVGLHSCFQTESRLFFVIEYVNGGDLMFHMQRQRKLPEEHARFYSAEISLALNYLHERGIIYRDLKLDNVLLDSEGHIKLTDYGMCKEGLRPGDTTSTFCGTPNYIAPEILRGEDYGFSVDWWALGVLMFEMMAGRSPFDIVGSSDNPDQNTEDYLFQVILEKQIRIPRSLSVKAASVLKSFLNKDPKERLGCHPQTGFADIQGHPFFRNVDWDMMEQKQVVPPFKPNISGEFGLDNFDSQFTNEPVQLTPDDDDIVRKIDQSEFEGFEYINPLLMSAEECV
# Description: (§1) Interaction assays were performed using the Alpha-Screen (amplified luminescent proximity homogeneous assay) technology, as described previously [Lopez-Garcia et al., Chem. Biol., 18:1463-1473; Zhang et al., Chem. Biol., 21:754-765]. The bead-based assay allows the detection of biomolecular interactions and the effect of small compounds. Briefly, the Alpha-Screen assay was performed in a finalvolume of 25 μL in white 384-well microtiter plates (Greiner Bio-One) with His-PKCι-CD (40 nM) and biotin-pseudosubstrate (80 nM) or His-PKCι-CD (15 nM) and biotin-ROCKtide (100 nM) in a buffer containing 50 mM Tris-HCl (pH 7.4), 100 mM NaCl, 0.01% (v/v) Tween 20, 0.1% (w/v) BSA, 2 mM dithiothreitol (for the PKCι-Rocktide interaction) or 5 mM dithiothreitol (for the PKCι-pseudosubstrate interaction), and the corresponding concentration of the compound. Five microliters of beads at a concentration of 20 μg/mL was added to the mixture (nickel chelate-coated acceptor beads and streptavidin-coated donor beads), and after incubation for 90 min, Alpha-Screen counts were obtained in an EnVision Multiplate reader.
# [2] = molecular target: T2, Protein kinase C zeta type (Homo sapiens, UniProt Q05513); test: PKC AlphaScreen Assay; details: pH 7.4
# T2 sequence (Q05513 whole entry): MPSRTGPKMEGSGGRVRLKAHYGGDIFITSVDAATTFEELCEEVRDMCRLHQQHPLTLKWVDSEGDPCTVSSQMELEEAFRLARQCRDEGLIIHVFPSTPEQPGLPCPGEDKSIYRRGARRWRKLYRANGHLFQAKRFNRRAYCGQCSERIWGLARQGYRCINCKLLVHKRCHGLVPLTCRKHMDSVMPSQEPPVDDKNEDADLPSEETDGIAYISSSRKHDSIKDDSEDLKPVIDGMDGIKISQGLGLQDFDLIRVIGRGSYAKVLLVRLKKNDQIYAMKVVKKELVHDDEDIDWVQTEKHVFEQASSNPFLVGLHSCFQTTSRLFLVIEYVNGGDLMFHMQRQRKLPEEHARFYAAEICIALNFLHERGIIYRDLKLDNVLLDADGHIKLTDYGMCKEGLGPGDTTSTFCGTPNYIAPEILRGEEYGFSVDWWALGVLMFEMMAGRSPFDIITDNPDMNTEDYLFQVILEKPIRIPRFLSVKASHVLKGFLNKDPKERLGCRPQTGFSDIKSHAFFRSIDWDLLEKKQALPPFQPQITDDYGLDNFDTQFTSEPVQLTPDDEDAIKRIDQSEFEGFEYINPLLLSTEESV
# Description: as §1
IC50 [1],IC50 [2],Structure (SMILES)
43.2 µM,20.5 µM,CCOC(=O)C1=C(O)C(=O)N(c2nc3ccc(Cl)cc3[nH]2)C1c1ccc(Cl)cc1 (configuration not stated) [PS212]
36.4 µM,17.8 µM,CCOC(=O)C1=C(O)C(=O)N(c2nc3ccc(Cl)cc3s2)C1c1cccs1 (configuration not stated) [PS267]
,44.1 µM,CCOC(=O)C1=C(O)C(=O)N(c2nc3ccc(Cl)cc3[nH]2)C1c1ccccc1 (configuration not stated) [PS312]
16.9 µM,18.5 µM,CCOC(=O)C1=C(O)C(=O)N(c2nc3ccc(C)cc3s2)C1c1ccc(-c2ccc(Cl)cc2)o1 (configuration not stated) [PS432]
